Test results published in ChEMBL document CHEMBL4138122, “Azaphenothiazines - promising phenothiazine derivatives. An insight into nomenclature, synthesis, structure elucidation and biological properties” (Eur J Med Chem, 2017).
≈ marks a conversion by molar mass, not a printed value. Blank lines part the entries; values can stand above or below the compound they belong to.

Assays:
Staphylococcus aureus [1] = test: Antibacterial activity against Staphylococcus aureus; format: functional; conditions: Staphylococcus aureus; read-out: MIC
Aspergillus niger = test: Antifungal activity against Aspergillus niger; format: functional
Bacillus cereus = test: Antibacterial activity against Bacillus cereus; format: functional, organism-based
Bacillus subtilis = test: Antibacterial activity against Bacillus subtilis; format: functional; conditions: Bacillus subtilis
Escherichia coli = test: Antibacterial activity against Escherichia coli; format: functional; conditions: Escherichia coli
Salmonella typhimurium = test: Antibacterial activity against Salmonella typhimurium; format: functional, Salmonella enterica subsp. enterica serovar Typhimurium; conditions: Salmonella enterica
[2] = Antioxidant activity assessed as H2O2 scavenging activity; format: functional; conditions: dose or concentration not given here
[3] = system: Human immunodeficiency virus; test: Antiviral activity against HIV infected in human MT4 cells; format: functional, organism-based; conditions: Human immunodeficiency virus 1, MT4
Rattus norvegicus [4] = test: Anti-asthmatic activity in rat assessed as inhibition of egg albumin-induced duration of symptoms of dyspnoea at 3 mg/kg, po administered 90 mins prior to dyspnoea induction; format: functional
Rattus norvegicus [5] = test: Anti-asthmatic activity in rat assessed as inhibition of egg albumin-induced duration of symptoms of dyspnoea at 5 mg/kg, po administered 90 mins prior to dyspnoea induction; format: functional
[6] = Inhibition of LTB4 formation in rat polymorphonuclear leukocytes preincubated for 2 mins followed by A-23187 addition after 4 mins; format: functional, cell-based
Staphylococcus aureus [7] = test: Antibacterial activity against methicillin-resistant Staphylococcus aureus; format: functional
T47D = test: Cytotoxicity against human T47D cells; format: functional, cell-based
SNB-19 = test: Cytotoxicity against human SNB19 cells incubated for 72 hrs by WST1 dye based assay; format: functional, cell-based; conditions: SNB-19, 72 h
C32 = test: Cytotoxicity against human C32 cells incubated for 72 hrs by WST1 dye based assay; format: functional, cell-based; conditions: C32, 72 h
MCF7 [8] = test: Cytotoxicity against human MCF7 cells incubated for 72 hrs by WST1 dye based assay; format: functional, cell-based; conditions: MCF7, 72 h
HFF-1 = test: Cytotoxicity against human HFF1 cells incubated for 72 hrs by WST1 dye based assay; format: cell-based; conditions: HFF-1, 72 h
Mus musculus [9] = organism: Mus musculus; test: Antioxidant activity in Swiss albino mouse assessed as LPO level per mg tissue; format: functional
[10] = Antioxidant activity assessed as DPPH radical scavenging activity; format: functional; conditions: dose or concentration not given here
Mus musculus [11] = organism: Mus musculus; test: Antioxidant activity in Swiss albino mouse assessed as GSH level per mg tissue; format: functional
Hs-578T = test: Cytotoxicity against human Hs578T cells assessed as cell growth inhibition after 48 hrs by SRB assay; format: functional, cell-based
786-0 = test: Cytotoxicity against human 786-O cells assessed as cell growth inhibition after 48 hrs by SRB assay; format: functional, cell-based; conditions: 786-0, 48 h
SNB-75 = test: Cytotoxicity against human SNB75 cells assessed as cell growth inhibition after 48 hrs by SRB assay; format: functional, cell-based; conditions: SNB-75, 48 h
Aspergillus terreus = test: Antimicrobial activity against Aspergillus terreus assessed as reduction in microbial growth at 100 ppm relative to control; format: functional
Candida albicans = test: Antimicrobial activity against Candida albicans assessed as reduction in […] growth at 100 ppm relative to control; format: functional
Aureobasidium pullulans = test: Antimicrobial activity against Pullularia pullulans assessed as reduction in microbial growth at 100 ppm relative to control; format: functional
[12] = system: Trichophyton mentagrophytes; test: Antimicrobial activity against Trichophyton mentagrophytes assessed as reduction in microbial growth at 100 ppm relative to control; format: functional
Staphylococcus aureus [13] = test: Antimicrobial activity against Staphylococcus aureus assessed as reduction in bacterial growth at 100 ppm relative to control; format: functional
[14] = molecular target: Intercellular adhesion molecule 1 (Homo sapiens, UniProt P05362); test: Inhibition of ICAM1 (unknown origin)
Intercellular adhesion molecule 1, sequence (P05362 whole entry): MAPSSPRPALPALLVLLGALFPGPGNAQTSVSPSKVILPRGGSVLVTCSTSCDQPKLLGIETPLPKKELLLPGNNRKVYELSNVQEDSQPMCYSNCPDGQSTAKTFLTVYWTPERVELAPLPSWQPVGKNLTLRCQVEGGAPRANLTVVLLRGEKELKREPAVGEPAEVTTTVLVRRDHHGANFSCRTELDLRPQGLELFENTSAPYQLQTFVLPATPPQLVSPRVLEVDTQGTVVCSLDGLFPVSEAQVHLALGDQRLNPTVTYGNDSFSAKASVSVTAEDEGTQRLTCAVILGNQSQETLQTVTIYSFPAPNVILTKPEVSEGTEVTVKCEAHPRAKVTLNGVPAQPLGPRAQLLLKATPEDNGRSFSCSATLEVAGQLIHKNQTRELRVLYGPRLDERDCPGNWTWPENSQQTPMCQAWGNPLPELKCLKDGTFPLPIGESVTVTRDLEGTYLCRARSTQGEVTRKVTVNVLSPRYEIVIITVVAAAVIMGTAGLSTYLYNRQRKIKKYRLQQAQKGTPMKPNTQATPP

[15] = molecular target: Vascular cell adhesion protein 1 (Homo sapiens, UniProt P19320); test: Inhibition of VCAM1 (unknown origin)
Vascular cell adhesion protein 1, sequence (P19320 whole entry): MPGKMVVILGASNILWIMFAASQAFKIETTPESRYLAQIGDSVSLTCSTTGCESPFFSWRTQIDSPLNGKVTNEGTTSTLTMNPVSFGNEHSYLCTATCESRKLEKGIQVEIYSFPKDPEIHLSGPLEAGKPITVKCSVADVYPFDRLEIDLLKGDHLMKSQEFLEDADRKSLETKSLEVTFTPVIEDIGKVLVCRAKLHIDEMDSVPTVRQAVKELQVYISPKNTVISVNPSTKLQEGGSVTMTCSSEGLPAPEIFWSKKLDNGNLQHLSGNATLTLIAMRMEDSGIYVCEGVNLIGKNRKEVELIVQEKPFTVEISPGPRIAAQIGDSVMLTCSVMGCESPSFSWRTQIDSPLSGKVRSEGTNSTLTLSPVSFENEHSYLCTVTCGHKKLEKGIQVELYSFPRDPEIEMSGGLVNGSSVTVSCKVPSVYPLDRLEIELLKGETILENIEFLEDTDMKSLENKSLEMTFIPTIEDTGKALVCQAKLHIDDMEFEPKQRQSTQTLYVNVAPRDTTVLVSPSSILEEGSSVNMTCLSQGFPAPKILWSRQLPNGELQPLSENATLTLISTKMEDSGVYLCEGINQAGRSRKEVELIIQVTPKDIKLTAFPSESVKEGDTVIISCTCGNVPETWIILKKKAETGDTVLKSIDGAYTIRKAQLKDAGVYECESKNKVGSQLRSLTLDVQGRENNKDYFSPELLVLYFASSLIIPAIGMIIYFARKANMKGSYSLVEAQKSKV

Mus musculus [16] = test: Anti-inflammatory activity in mouse IL-1-induced paw inflammation model assessed as inhibition of neutrophil infiltration at 10 mg/kg, po; format: functional; conditions: Mus musculus, po
[17] = Oral bioavailability in rat at 3 mg/kg; format: ADME, organism-based; conditions: in vivo
MCF7 [18] = test: Cytotoxicity against human MCF7 cells assessed as cell growth inhibition after 48 hrs by SRB assay; format: functional, cell-based; conditions: MCF7, 48 h
HOP-92 = test: Cytotoxicity against human HOP92 cells assessed as cell growth inhibition after 48 hrs by SRB assay; format: functional, cell-based; conditions: HOP-92, 48 h
MCF7 [19] = test: Growth inhibition of human MCF7 cells at 10 uM; format: functional; conditions: read-out: GI
UO-31 = test: Growth inhibition of human UO31 cells at 10 uM; format: functional; conditions: read-out: GI
Rattus norvegicus [20] = organism: Rattus norvegicus; test: Antioxidant activity in albino rat assessed as inhibition of catalase induced H2O2 production; format: functional

MIC (Staphylococcus aureus [1]): 39.8 µg/mL (≈ 78.2 µM)
MIC (Aspergillus niger): 60.3 µg/mL (≈ 119 µM)
IC50 (Bacillus cereus): 50.5 µg/mL (≈ 99.3 µM)
MIC (Bacillus subtilis): 63.3 µg/mL (≈ 124 µM)
Structure (SMILES): CCSc1ncc2c(n1)N=c1c(c3c(c4ccccc14)=Nc1nc(SCC)nc(O)c1S3)S2

MIC (Escherichia coli): 0.75 µg/mL (≈ 2.04 µM)
MIC (Bacillus cereus): 3 µg/mL (≈ 8.14 µM)
MIC (Salmonella typhimurium): 6 µg/mL (≈ 16.3 µM)
Structure (SMILES): O=C(O)c1cn(C2CC2)c2c3c(c(F)cc2c1=O)Sc1ccccc1N3

Structure (SMILES): O=C1C(c2ccc(Br)cc2)=C2Sc3cccnc3NC2c2ccccc21 (stereo not given)
inhibition [2]: < 100%

IC50 [3]: 4580 nM
Structure (SMILES): CCOCn1c(=O)[nH]c2c(c1=O)Nc1ccc(C)cc1S2

IC50 [6]: 0.05 to 1 µg/mL (≈ 0.188 to 3.76 µM)
Structure (SMILES): CN1c2ccc(O)c(Cl)c2Sc2nccnc21
inhibition in vivo at 3 mg/kg (Rattus norvegicus [4]): 43%
inhibition in vivo at 5 mg/kg (Rattus norvegicus [5]): 47%

Structure (SMILES): O=C(O)c1cn(C2CC2)c2c3c(c(F)cc2c1=O)Sc1cc(Cl)ccc1N3
MIC (Staphylococcus aureus [7]): ≥ 100 µg/mL

Structure (SMILES): COc1ccc2c(c1)Sc1c(F)cc3c(=O)c(C(=O)O)cn(C4CC4)c3c1N2
MIC (Staphylococcus aureus [7]): 25 µg/mL (≈ 62.7 µM)
MIC (Salmonella typhimurium): 6 µg/mL (≈ 15.1 µM)

Structure (SMILES): CN(C)CCCN1c2ccccc2Sc2cccnc21 [PROTHIPENDYL]
IC50 (T47D): 32.3 µg/mL (≈ 113 µM)
IC50 (SNB-19): ≥ 23 µg/mL
IC50 (C32): ≥ 23 µg/mL
IC50 (MCF7 [8]): ≥ 23 µg/mL
IC50 (HFF-1): ≥ 23 µg/mL

IC50 [6]: 0.05 to 1 µg/mL (≈ 0.23 to 4.6 µM)
Structure (SMILES): Oc1ccc2c(c1)Sc1nccnc1N2
inhibition in vivo at 3 mg/kg (Rattus norvegicus [4]): 43%
inhibition in vivo at 5 mg/kg (Rattus norvegicus [5]): 47%

Structure (SMILES): COc1cccc2c1Nc1c(c3nc4ccccc4c(=O)n3c3c(OC)cccc13)S2
Activity (Mus musculus [9]): 4.5 to 4.6 nM
inhibition [10]: 45.6 to 47.3%
Activity (Mus musculus [11]): 6.8 nM

Structure (SMILES): COc1cccc2c3c(c4nc5ccccc5c(=O)n4c12)Sc1cc(C)ccc1N3
Activity (Mus musculus [9]): 4.5 to 4.6 nM
inhibition [10]: 45.6 to 47.3%
Activity (Mus musculus [11]): 6.8 nM

Structure (SMILES): Cc1ccc(S(=O)(=O)NCCN2c3nc4ccccc4cc3Sc3cc4ccccc4nc32)cc1
IC50 (Hs-578T): 1700 nM
IC50 (786-0): 480 nM
IC50 (SNB-75): 1700 nM

Structure (SMILES): Clc1nc2c(nc1Cl)N(CCCN1CCCC1)c1ccccc1S2
inhibition at 100 ppm (Aspergillus terreus): 100%
inhibition at 100 ppm (Candida albicans): 100%
inhibition at 100 ppm (Aureobasidium pullulans): 100%
inhibition at 100 ppm [12]: 100%
inhibition at 100 ppm (Staphylococcus aureus [13]): 100%

IC50 [14]: 3000 nM
IC50 [15]: 2500 nM
bioavailability [17]: 98.5%
Structure (SMILES): O=C(O)CC1C2CCCC1CN(Cc1ccc3c(c1)Nc1nccnc1S3)C2 (stereo in doubt; 64c)
inhibition in vivo at 10 mg/kg (Mus musculus [16]): 91.5%

Structure (SMILES): CCN(CC)CCN1c2nc3ccccc3cc2Sc2cc3ccccc3nc21
IC50 (MCF7 [18]): ≤ 1000 nM
IC50 (HOP-92): ≤ 1000 nM

Structure (SMILES): CN(C)CCCN1c2nc3ccccc3cc2Sc2cc3ccccc3nc21
IC50 (MCF7 [18]): ≤ 1000 nM
IC50 (HOP-92): ≤ 1000 nM

Structure (SMILES): Cc1ccc2c(c1)Sc1c(F)cc3c(=O)c(C(=O)O)cn(C4CC4)c3c1N2
MIC (Escherichia coli): 1.5 µg/mL (≈ 3.92 µM)
MIC (Staphylococcus aureus [7]): 1.5 µg/mL (≈ 3.92 µM)
MIC (Bacillus cereus): 1.5 µg/mL (≈ 3.92 µM)
MIC (Salmonella typhimurium): 1.5 µg/mL (≈ 3.92 µM)

Structure (SMILES): Clc1ccc(N2c3nc4ccccc4cc3Sc3cc4ccccc4nc32)cc1
inhibition of growth at 10 µM (MCF7 [19]): 63%
inhibition of growth at 10 µM (UO-31): 57 to 73%

Structure (SMILES): CCN(CC)CCN1c2cccnc2Sc2cccnc21
IC50 (C32): 6.6 µg/mL (≈ 22 µM)
IC50 (HFF-1): ≥ 50 µg/mL

Structure (SMILES): O=C1C(Cl)=C2Sc3cccnc3NC2c2ccccc21 (stereo not given)
inhibition (INH) (Rattus norvegicus [20]): 77.9%
inhibition [2]: < 100%
